Experiments:
FGF19-mediated HCC = experiment: Tumorigenicity study in db/db mice (AAV-SOCS3, tofacitinib); assay type: in vivo
Procedure: Blood parameters. Blood was collected from tail vein in un-anesthetized animals using microvette serum gel tubes (Sarstedt) for measurements of glucose, insulin, ALT, AST, ALP, bile acids, and FGF19 concentrations. Serum samples were prepared by centrifugation at 4° C. for 10 minutes at 6000 g after clotting at room temperature for 30 minutes. For HbA1c measurements, whole blood was collected after euthanasia by cardiac puncture into EDTA-tubes and quickly inverted multiple times. HbA1c (from whole blood samples) and liver enzyme (from serum samples) levels were measured on Cobas Integra 400 Clinical Analyzer (Roche Diagnostics). Serum FGF19 level was determined by FGF19 enzyme-linked immunosorbent assays (ELISA) (Biovendor). Serum insulin was assessed with ELISA kits from ALPCO. Concentrations of total bile acids in serum were determined using a 3β-hydroxysteroid dehydrogenase method (Diazyme). All assays were performed according to the manufacturers' instructions.
Histology and immunohistochemistry. Livers were fixed in 10% neutral-buffered formalin and embedded in paraffin. 5 μm sections were deparaffinized in xylenes, rehydrated sequentially in graded ethanol (100%, 95%, 80%, 70%, 50%, 2 minutes each). Hematoxylin and eosin staining was performed using standard methods. For immunohistochemical studies, liver sections were subjected to antigen retrieval in a citrate-based Antigen Unmasking Solution (Vector Laboratories), and incubated for 30 minutes with 3% H2O2 at room temperature to block endogenous peroxidase activity. Sections were stained with primary antibodies against glutamine synthetase (Thermo Fisher), BrdU, PCNA, or STAT3 in PBS containing 10% goat serum. Biotinylated secondary antibodies, ABC-HRP reagent (Vectastain ABC kit, #PK-6100, Vector Laboratories) and di-amine-benzidine (DAB) colorimetric peroxidase substrate (#SK-4100, Vector Laboratories) were used for detection. When indicated, sections were counterstained with hematoxylin. Digital imaging microscopy was performed using a Leica DM4000 microscope equipped with DFC500 camera and a scanning platform (Leica). Images for the entire liver section were acquired by stitching 70-96 fields together using Surveyor program for morphometric analysis. Glutamine synthetase-positive tumor areas were quantified using Measure/Count/Area tool from ImagePro software.
Tumorigenicity study in db/db mice. 11 to 12 week old db/db mice received a single intravenous dose of AAV containing either FGF19 or a control gene (green fluorescent protein). Body weight and blood glucose were monitored. […] Mice were euthanized 24 weeks post-AAV administration and examined for liver tumor formation by gross appearance and histology.

STAT3 = experiment: In vivo pSTAT3 activation, immunoblot of liver lysates; conditions: db/db mice, 1 mg/kg FGF19 i.p.
Procedure: In vivo pSTAT3 activation.
Immunoblotting. Cell or tissue lysates were mixed with 4×SDS sample loading buffer (50 mM Tris-Cl, pH6.8, 2.5% SDS, urea, 4% β-mercaptoethanol), heated for 10 minutes at 95° C., and separated on 4-20% SDS-polyacrylamide gels (Life Technologies) in 1×MOPS running buffer. Proteins were transferred onto PVDF membranes (GE Healthcare). Membranes were blocked in TBST buffer (20 mM Tris-Cl, pH 7.6, 137 mM NaCl, 0.1% Tween-20) containing 5% non-fat dry milk for 1 hour at room temperature, and incubated with anti-pSTAT3^Y705, anti-total STAT3, anti-pERK, anti-total ERK, or anti-β-actin antibodies in blocking buffer at 4° C. overnight. Membranes were washed in TBST extensively, and bound proteins were detected with horseradish peroxidase-conjugated goat-anti-mouse IgG or goat-anti-rabbit IgG antibodies (GE Healthcare) for 1 hour at room temperature. Signals were developed with SuperSignal West Dura extended duration substrate (Thermo Scientific), and captured with a ChemiDoc XrS+ imaging system (Bio-Rad).
To examine STAT3 activation following FGF19 treatment in vivo, 11 week old diabetic db/db mice (on BKS background) were administered with 1 mg/kg of recombinant FGF19 protein i.p., and livers were harvested after 2 hours. Phosphorylation of STAT3 at tyrosine residue 705 (pSTAT3^Y705) was evident by immunoblotting of liver lysates (FIG. 1A). […]

[1] = test system: primary mouse hepatocytes; experiment: In vitro BrdU incorporation in primary mouse hepatocytes; assay type: cell-based; conditions: 48 hours incubation
Procedure: FIGS. 2A-2E depict non-cell autonomous promotion of hepatocellular proliferation by FGF19. 11 week old mice (n=5 per group) were implanted with osmotic pumps releasing BrdU (8.5 mg/kg/day) and FGF19 protein (0.4 mg/kg/day). Livers were harvested 6 days post-implant. (FIG. 2A) Flow cytometry analysis of BrdU-labeled livers is shown. Representative histograms from hepatocytes stained with 7-ADD and anti-BrdU-APC are shown. (FIG. 2B) BrdU-positive hepatocytes as a percentage of total hepatocytes from vehicle (V)-treated (n=5) or FGF19-treated (n=5) mice were quantified by flow cytometry. (FIG. 2C) Shown are circulating FGF19 levels on day 6 post-implant of osmotic pumps. (FIG. 2D) Lack of proliferative effects of FGF19 on primary mouse hepatocytes. Primary cultures of hepatocytes isolated from mouse liver were incubated with recombinant FGF19 protein at the indicated concentrations for 48 hours and BrdU was added during the last 20 hours of incubation. BrdU incorporation was determined using a luminescence method. Mouse hepatocyte growth factor (mHGF) was included as a positive control. RLU, relative luminescence unit. (FIG. 2E) Lack of proliferative effects of FGF19 on primary human hepatocytes. Primary cultures of hepatocytes isolated from human liver were incubated with recombinant FGF19 protein. Human hepatocyte growth factor (hHGF) was included as a positive control. […]

Q: How did the HbA1c (FGF19-mediated HCC; AAV-expressed FGF19, in the absence or presence of SOCS3) turn out when “FGF19: Fibroblast growth factor 19, mature human 194 amino acid polypeptide (SEQ ID NO: 1); recombinant protein or AAV-expressed” was run?
A: The HbA1c was “normalized”.

Q: What about the Blood glucose levels (FGF19-mediated HCC; AAV-expressed FGF19, irrespective of tofacitinib treatment) of the same substance?
A: Its Blood glucose levels is “normalized”.

Q: And the “Phosphorylation of ERK1 and ERK2 in the liver” value (STAT3; 2 hours)?
A: The value was “induced phosphorylation”.

Q: And the “Phosphorylation of STAT3 at tyrosine residue 705 (pSTAT3 Y705) in liver lysates” value (STAT3; livers harvested after 2 hours)?
A: Its value is “evident”.

Q: And the BrdU signal [1]?
A: The BrdU signal was “no increase”.

Reference: US11370841B2, “Methods of treating fibroblast growth factor 19-mediated cancers and tumors” (NGM Biopharmaceuticals, Inc., priority 2016, dated 2022)
